Experimental data from patent US7138376B2, “Methods and compositions for treating hepatitis C virus using 4'-modified nucleosides” (Idenix Pharmaceuticals, Inc., priority 2001, dated 2006).

How the values were obtained:
[1] = tested on: HCV; details: cited from earlier work
[2] = tested on: MDBK; assay: Cytotoxicity assay (CC50, sulforhodamine B staining); assay type: cell-based; details: MDBK cells; 4 days incubation; concentration reducing cell number by 50%; preliminary results
Experimental: The test compounds were dissolved in DMSO at an initial concentration of 200 μM and then were serially diluted in culture medium.
Cells are seeded at a rate of between 5×10^3 and 5×10^4/well into 96-well plates in growth medium overnight at 37° C. in a humidified CO2 (5%) atmosphere. New growth medium containing serial dilutions of the drugs is then added. After incubation for 4 days, cultures are fixed in 50% TCA and stained with sulforhodamineB. The optical density was read at 550 nm. The cytotoxic concentration was expressed as the concentration required to reduce the cell number by 50% (CC50).

[3] = tested on: HCV protease; details: SDS-PAGE and autoradiography assay; cited from earlier work

SMILES: NC(=O)c1ncn([C@@H]2O[C@H](CO)[C@@H](O)[C@H]2O)n1 [Ribavirin, 1-β-D-ribofuranosyl-1-1,2,4-triazole-3-carboxamide]
- effect on serum levels of HCV-RNA ([1]; patients, sole treatment): does not lower serum levels of HCV-RNA
- patients in whom serum amino transferase levels are reduced to normal ([1]; ribavirin alone): 40%

SMILES: C[C@]1(CO)O[C@@H](n2cnc3c(=O)[nH]c(N)nc32)[C@H](O)[C@@H]1O [β-D-4′-CH3-riboG, 9-(4-C-methyl-β-D-ribofuranosyl) guanine]
- CC50 [2]: > 250 µM

SMILES: C[C@]1(CO)O[C@@H](n2cnc3c(N)ncnc32)[C@H](O)[C@@H]1O [β-D-4′-CH3-riboA, 9-(4-C-methyl-β-D-ribofuranosyl) adenine]
- CC50 [2]: > 250 µM
- melting point: 96 to 97 °C (dec.)

SMILES: C[C@]1(CO)O[C@@H](n2ccc(=S)[nH]c2=O)[C@H](O)[C@@H]1O [β-D-4′-CH3-ribo-4-thioU, 1-(4-C-methyl-β-D-ribofuranosyl)4-thio-uracil]
- CC50 [2]: > 250 µM
- melting point: 65 to 70 °C (dec.)

SMILES: C[C@]1(CO)O[C@@H](n2cc(F)c(=O)[nH]c2=O)[C@H](O)[C@@H]1O [β-D-4′-CH3-ribo-5-fluoroU]
- CC50 [2]: > 167 µM

SMILES: CCCC(=O)c1cc2c(c(O)c1C)C(=O)C(=O)c1c(O)cccc1-2 [Sch 68631]
- activity against HCV protease [3]: micromolar activity

SMILES: C[C@]1(CO)O[C@@H](n2ccc(N)nc2=O)[C@H](O)[C@@H]1O [β-D-4′-CH3-riboC, 1-(4-C-methyl-β-D-ribofuranosyl)cytosine]
- CC50 [2]: > 250 µM

SMILES: Cc1cn([C@@H]2O[C@](C)(CO)[C@@H](O)[C@H]2O)c(=O)[nH]c1=O [β-D-4′-CH3-riboT, 1-(4-C-methyl-β-D-ribofuranosyl)thymine]
- CC50 [2]: > 250 µM
- melting point: 258 to 260 °C (dec.)
